The values below come from patent US9056835B2, “LPA2 receptor-specific benzoic acid derivatives” (University of Tennessee Research Foundation, priority 2012, dated 2015).

Experiment [1] concerns MM1 hepatoma cells. Briefly: MM1 hepatoma cell invasion of endothelial monolayer. It is filed as cell-based, rat. The note with it: LPA 1 μM, GRI977143 10 μM, 20 h. How it is done:
Mouse embryonic fibroblast (MEF) cells were isolated from E13.5 LPA1&2 double knockout (DKO) embryos. MEFs were transduced with empty vector or LPA2-containing lentiviruses and selected with 1.5 μg/ml puromycin. Cells were maintained in Dulbecco's modified Eagle medium (DMEM) supplemented with 10% (V/V) fetal bovine serum (FBS), 2 mM L-glutamine, 100 U/mL penicillin, and 100 μg/mL streptomycin. Serum-free medium contained 0.1% (W/V) BSA in DMEM. The rat intestinal epithelial cell line 6 (IEC-6) was obtained from the American Type Culture Collection (Rockville, Md.) at passage 13; passages 16-21 were used in all experiments. IEC-6 cells were maintained in a humidified 37° C. incubator in an atmosphere of 90% air and 10% CO2. Growth medium consisted of DMEM supplemented with 5% heat inactivated FBS, 10 μg/mL insulin, and 50 μg/mL gentamycin. […]
HUVEC (1.3×10^5 cells at passages 5 to 7) were seeded into each well of a 12-well plate pre-coated with 0.2% gelatin (Sigma-Aldrich). […] Tumor cells that penetrated the monolayer were photographed using a NIKON TiU inverted microscope with phase-contrast and fluorescence illumination. […] A total of five non-overlapping fields was imaged per well, and the number of invaded MM1 cells (displaying a flattened morphology underneath the monolayer) was counted.

For experiment [2], the system named is ERK1/2. Put plainly: Immunoblot, ERK1/2 activation. Type of experiment: cell-based, mouse. The settings on record: 10 μM, 10 min. Here is the method:
To detect ligand-induced ERK1/2 activation, vector- and LPA2-transfected MEF cells were serum starved 3 h before exposure to 1 μM LPA, 1 μM OTP, 10 μM GRI977143, or vehicle for 10 min. For ERK1/2 activation and PARP-1 cleavage measurements, cells were harvested in 1× Laemmli sample buffer and separated using 12% Laemmli SDS-polyacrylamide gels. To assess Bax translocation, cell lysates were separated into cytosolic, mitochondrial, and nuclear fractions using the Cell Fractionation Kit-Standard (MitoSciences; Eugene, Oreg.). […] Samples were boiled for 5 min and loaded onto 12% SDS-polyacrylamide gels. Western blotting was carried out as previously described (Valentine et al., 2010). Primary antibodies against pERK1/2, PARP-1, Bax (Cell Signaling Technology; Beverly, Mass.), actin (Sigma-Aldrich), and anti-rabbit-horseradish peroxidase secondary antibodies (Promega) were used according to the instructions of the manufacturer.

Experiment [3] has as its target T1, LPA2, TRIP6 and NHERF2 (Homo sapiens, UniProt Q9HBW0).
T1 construct: expressed in transfected cells; host or cells: HEK293T, transient co-transfection
Briefly: Ligand-induced macromolecular complex formation with LPA2. It is filed as cell-based. The settings on record: HEK293T, FLAG-LPA2 and EGFP-NHERF2, 10 μM, 10 min. From the text:
LPA2 forms a ternary complex with TRIP6 and NHERF2. This complex is assembled via multiple protein-protein interactions that include: binding of NHERF2 to the C-terminal PSD95/Dlg/ZO-1 domain (PDZ)-binding motif of LPA2, the binding of TRIP6 to the Zinc-finger-like CxxC motif of LPA2, and binding of NHERF2 to the PDZ-binding motif of TRIP6. To examine ligand-induced macromolecular complex formation, HEK293T cells were transfected with FLAG-LPA2 and enhanced green fluorescent protein (EGFP)-NHERF2, and the cells were exposed to 10 μM GRI977143 for 10 min as described in detail in our previous publication (E et al., The LPA2 receptor-mediated supramolecular complex formation regulates its antiapoptotic effect. J Biol Chem (2009) 284: 14558-14571). The complex was pulled down using anti-FLAG M2 monoclonal antibody-conjugated agarose beads (Sigma-Aldrich) and processed for western blotting using anti-EGFP (gift from Dr. A. P. Naren; UTHSC, TN), anti-FLAG (Sigma-Aldrich), and anti-TRIP6 (Bethyl Laboratories; Montgomery, Tex.) antibodies.

T1 sequence (Q9HBW0 whole entry): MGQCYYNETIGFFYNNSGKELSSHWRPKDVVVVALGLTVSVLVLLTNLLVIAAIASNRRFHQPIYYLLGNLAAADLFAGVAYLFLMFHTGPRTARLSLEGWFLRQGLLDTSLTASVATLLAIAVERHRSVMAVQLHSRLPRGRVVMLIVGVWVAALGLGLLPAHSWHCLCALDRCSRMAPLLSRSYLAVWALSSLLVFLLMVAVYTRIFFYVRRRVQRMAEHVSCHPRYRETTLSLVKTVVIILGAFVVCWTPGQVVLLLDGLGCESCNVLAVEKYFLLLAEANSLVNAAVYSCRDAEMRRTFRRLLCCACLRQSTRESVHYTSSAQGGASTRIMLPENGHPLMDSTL
T1 sequence (Q15599 whole entry partner): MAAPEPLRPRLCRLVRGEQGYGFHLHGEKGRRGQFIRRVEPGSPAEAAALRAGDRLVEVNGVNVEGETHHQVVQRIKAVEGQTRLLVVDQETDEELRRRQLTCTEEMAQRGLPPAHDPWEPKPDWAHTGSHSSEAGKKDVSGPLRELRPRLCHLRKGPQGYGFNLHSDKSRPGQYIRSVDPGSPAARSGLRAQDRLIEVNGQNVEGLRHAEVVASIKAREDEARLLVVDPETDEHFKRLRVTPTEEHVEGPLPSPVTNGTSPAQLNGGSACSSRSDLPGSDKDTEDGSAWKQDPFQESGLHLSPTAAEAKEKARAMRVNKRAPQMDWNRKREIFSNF
T1 sequence (Q15654 whole entry partner): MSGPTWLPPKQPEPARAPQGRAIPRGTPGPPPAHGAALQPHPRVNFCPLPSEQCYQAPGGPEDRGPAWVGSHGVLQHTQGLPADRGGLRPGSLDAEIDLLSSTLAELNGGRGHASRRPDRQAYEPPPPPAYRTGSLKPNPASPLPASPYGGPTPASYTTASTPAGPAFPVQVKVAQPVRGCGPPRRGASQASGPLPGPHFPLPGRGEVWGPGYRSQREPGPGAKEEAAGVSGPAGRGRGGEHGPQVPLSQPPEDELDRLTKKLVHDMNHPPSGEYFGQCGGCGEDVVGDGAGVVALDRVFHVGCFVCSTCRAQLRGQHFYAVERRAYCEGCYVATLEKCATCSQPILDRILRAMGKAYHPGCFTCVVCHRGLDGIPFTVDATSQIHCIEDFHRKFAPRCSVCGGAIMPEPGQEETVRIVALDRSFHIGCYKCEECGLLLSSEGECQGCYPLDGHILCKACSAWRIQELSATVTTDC

For the compound `CCCCCCCC/C=C\CCCCCCCC(=O)OC[C@@H](O)COP(=O)(O)O` [LPA 18:1, Lysophosphatidic acid (18:1)], the “MM1 cell invasion of HUVEC monolayers” value in experiment [1] was “significant increase”.

With `O=C(O)c1ccccc1SCCCN1C(=O)c2cccc3cccc(c23)C1=O` [GRI977143], the “increase in ERK1/2 activation” value in experiment [2] (LPA2-transduced MEF) stood at 9.6 fold. In experiment [2] (vector-transduced MEF), the ERK1/2 basal activity result is reported as “did not alter the basal activity”. Besides, the “MM1 cell invasion of HUVEC monolayers” value in experiment [1] is “significant increase”. Besides, the “assembly of macromolecular complex LPA2-TRIP6-NHERF2” value in experiment [3] is “elicited the assembly of the signaling complex”.
